Laboratory results published in ChEMBL document CHEMBL1140512, “N-Alkylidenearylcarboxamides as new potent and selective CB(2) cannabinoid receptor agonists with good oral bioavailability” (Bioorg Med Chem Lett, 2007).

Assays:
Cannabinoid receptor 2 [1] = molecular target: T1, Cannabinoid receptor 2 (Homo sapiens, UniProt P34972); assay: Displacement of [3H]CP-55940 form human CB2 receptor expressed in CHO cells; type: cell-based
Cannabinoid receptor 2 [2] = molecular target: T1, Cannabinoid receptor 2; assay: Agonist activity at human CB2 receptor expressed in CHO cells by [35S]GTP-gamma-S binding assay; type: functional, cell-based
Cannabinoid receptor 1 = Cannabinoid receptor 1 (Homo sapiens, UniProt P21554); assay: Displacement of [3H]CP-55940 form human CB1 receptor expressed in CHO cells; type: cell-based
Sequence of Cannabinoid receptor 1 (P21554 whole entry): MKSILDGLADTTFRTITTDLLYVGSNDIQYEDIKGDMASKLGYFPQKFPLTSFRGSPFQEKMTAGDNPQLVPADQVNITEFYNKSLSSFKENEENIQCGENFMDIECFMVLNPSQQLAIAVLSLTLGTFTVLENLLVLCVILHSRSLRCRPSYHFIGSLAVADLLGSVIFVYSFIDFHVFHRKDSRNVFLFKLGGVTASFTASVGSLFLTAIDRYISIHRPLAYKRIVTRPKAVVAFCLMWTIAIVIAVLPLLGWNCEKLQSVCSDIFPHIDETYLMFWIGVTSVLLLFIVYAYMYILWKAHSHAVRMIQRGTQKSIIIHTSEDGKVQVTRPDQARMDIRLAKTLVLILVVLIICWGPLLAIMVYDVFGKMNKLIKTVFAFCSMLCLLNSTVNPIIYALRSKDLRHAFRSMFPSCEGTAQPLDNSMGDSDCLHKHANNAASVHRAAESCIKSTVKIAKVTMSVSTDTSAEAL

Cannabinoid receptor 2 [3] = molecular target: T1, Cannabinoid receptor 2; assay: Efficacy at human CB2 receptor expressed in CHO cells by [35S]GTP-gamma-S binding assay relative to CP-55940; type: functional, cell-based
[4] = AUC (0 to 24 hrs) in rat at 3 mg/kg, po; type: ADME, organism-based; design: time < 24 hr, dose 3 mg/kg, route oral; conditions: plasma
[5] = Tmax in rat at 10 mg/kg, po; type: ADME, organism-based; design: dose 10 mg/kg, route oral; conditions: in vivo
[6] = Cmax in rat at 30 mg/kg, po; type: ADME, organism-based; design: dose 30 mg/kg, route oral; conditions: in vivo
[7] = Tmax in rat at 30 mg/kg, po; type: ADME, organism-based; design: dose 30 mg/kg, route oral; conditions: in vivo
[8] = AUC (0 to 24 hrs) in rat at 10 mg/kg, po; type: ADME, organism-based; design: time < 24 hr, dose 10 mg/kg, route oral; conditions: plasma
[9] = Half life in rat at 3 mg/kg, po; type: ADME, organism-based; design: dose 3 mg/kg, route oral; conditions: in vivo
[10] = Oral bioavailability in rat at 3 mg/kg, po; type: ADME, organism-based; conditions: in vivo
[11] = Half life in rat at 10 mg/kg, po; type: ADME, organism-based; design: dose 10 mg/kg, route oral; conditions: in vivo
[12] = Cmax in rat at 3 mg/kg, po; type: ADME, organism-based; design: dose 3 mg/kg, route oral; conditions: in vivo
[13] = Cmax in rat at 10 mg/kg, po; type: ADME, organism-based; design: dose 10 mg/kg, route oral; conditions: in vivo
[14] = AUC (0 to 24 hrs) in rat at 30 mg/kg, po; type: ADME, organism-based; design: time < 24 hr, dose 30 mg/kg, route oral; conditions: plasma
[15] = Tmax in rat at 3 mg/kg, po; type: ADME, organism-based; design: dose 3 mg/kg, route oral; conditions: in vivo
[16] = Half life in rat at 30 mg/kg, po; type: ADME, organism-based; design: dose 30 mg/kg, route oral; conditions: in vivo
Homo sapiens = species on record: Homo sapiens; assay: Selectivity for human CB2 receptor over CB1 receptor
[17] = Metabolic stability in human liver microsomes assessed as parent compound remaining after 15 mins; type: ADME, Microsome; conditions: read-out: Stability
Cannabinoid receptor 2 [18] = molecular target: T1, Cannabinoid receptor 2; assay: Displacement of [3H]CP-55940 form human CB2 receptor expressed in CHO cells at 100 nM; type: cell-based

T1 sequence (P34972 whole entry): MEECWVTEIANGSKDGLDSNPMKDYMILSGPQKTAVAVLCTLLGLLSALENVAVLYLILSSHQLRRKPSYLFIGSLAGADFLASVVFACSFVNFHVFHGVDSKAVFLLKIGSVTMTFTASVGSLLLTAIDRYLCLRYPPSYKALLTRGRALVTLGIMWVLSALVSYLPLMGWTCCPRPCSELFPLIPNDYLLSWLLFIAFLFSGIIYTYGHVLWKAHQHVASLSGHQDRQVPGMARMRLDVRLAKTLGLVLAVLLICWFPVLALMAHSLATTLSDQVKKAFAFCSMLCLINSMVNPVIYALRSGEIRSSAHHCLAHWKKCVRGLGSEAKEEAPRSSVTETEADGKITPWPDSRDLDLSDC

Row | Compound | IC50 (Cannabinoid receptor 2 [1]) [nM] | EC50 (Cannabinoid receptor 2 [2]) [nM] | IC50 (Cannabinoid receptor 1) [nM] | Emax (Cannabinoid receptor 2 [3]) [%] | further results
1 | Cc1c(C(=O)N(C)C)s/c(=N\C(=O)c2cccc(C(F)(F)F)c2)n1CC1CC1 | 1000 |  |  |  | 
2 | CCOCCn1c(C)c(C(C)(C)C)s/c1=N\C(=O)c1cccc(C(F)(F)F)c1 |  | 2 | 690 | 45 | 
3 | COCCn1c(C)c(C(C)(C)C)s/c1=N\C(=O)c1cccc(C(F)(F)F)c1 | 10 | 5.6 | 4100 | 59 | 
4 | Cc1c(C(C)(C)C)s/c(=N\C(=O)c2cccc(C(F)(F)F)c2)n1CC1CC1 | 13 | 10 | 3500 |  | AUC(0-t) at 24 h [4]: 326 ng·h/mL; Tmax [5]: 2 h; Cmax [6]: 498 ng/mL; Tmax [7]: 2.67 h; AUC(0-t) at 24 h [8]: 2050 ng·h/mL; half-life [9]: 4.8 h; bioavailability [10]: 52%; half-life [11]: 4.96 h; Cmax [12]: 43.1 ng/mL; Cmax [13]: 223 ng/mL; AUC(0-t) at 24 h [14]: 4240 ng·h/mL; Tmax [15]: 1.67 h; half-life [16]: 4.7 h; Ratio IC50 (Homo sapiens): 270
5 | Cc1ccc(C(F)(F)F)cc1C(=O)/N=c1\sc(C(C)(C)C)c(C)n1CC1CC1 | 2.1 | 2.7 | 1200 | 99 | Ratio IC50 (Homo sapiens): 570
6 | Cc1c(C(C)(C)C)s/c(=N\C(=O)c2cccc(C(F)(F)F)c2Cl)n1CC1CC1 | 0.41 |  |  |  | 
7 | Cc1c(C(C)(C)C)s/c(=N\C(=O)c2cc(C(F)(F)F)ccc2F)n1CC1CC1 |  | 1.5 | 1500 | 85 | Ratio IC50 (Homo sapiens): 440
8 | COc1ccc(C(F)(F)F)cc1C(=O)/N=c1\sc(C(C)(C)C)c(C)n1CC1CC1 | 1.2 | 0.62 | 1900 | 100 | Tmax [5]: 1 h; AUC(0-t) at 24 h [8]: 1120 ng·h/mL; half-life [11]: 4.07 h; remaining at 0.25 h [17]: 85%; Cmax [13]: 148 ng/mL; Ratio IC50 (Homo sapiens): 1600
9 | CCOC(=O)c1s/c(=N\C(=O)c2cccc(C(F)(F)F)c2)n(CC2CC2)c1C | 110 |  |  |  | 
10 | COc1cccc(C(=O)/N=c2\sc(C(C)(C)C)c(C)n2CC2CC2)c1 | 24 |  |  |  | 
11 | Cc1c(C(C)(C)C)s/c(=N\C(=O)c2cccc(C(F)(F)F)c2)n1C | 220 |  |  |  | 
12 | Cc1c(C(C)(C)C)s/c(=N\C(=O)c2ccc(C(F)(F)F)cc2)n1CC1CC1 |  |  |  |  | inhibition (Cannabinoid receptor 2 [18]): 24%
13 | Cc1c(C(C)(C)C)s/c(=N\C(=O)c2cccc(OC(F)(F)F)c2)n1CC1CC1 | 5.7 | 7.6 | 1100 | 72 | 
14 | Cc1c(C(C)(C)C)s/c(=N\C(=O)c2cccc(N(C)C)c2)n1CC1CC1 | 17 |  |  |  | remaining at 0.25 h [17]: 44%
15 | Cc1c(C(C)(C)C)s/c(=N\C(=O)c2cc(C(F)(F)F)ccc2Cl)n1CC1CC1 | 2.1 | 4 | 830 | 95 | 
16 | Cc1c(C(C)(C)C)s/c(=N\C(=O)c2cc(C(F)(F)F)ccc2N(C)C)n1CC1CC1 | 9.4 | 7.3 | > 10000 | 89 | Ratio IC50 (Homo sapiens): > 1000
17 | Cc1c(C(C)C)s/c(=N\C(=O)c2cccc(C(F)(F)F)c2)n1CC1CC1 | 29 |  |  |  | 
18 | CCn1c(C)c(C(C)(C)C)s/c1=N\C(=O)c1cccc(C(F)(F)F)c1 | 74 |  |  |  | 
19 | Cc1c(C(C)(C)C)s/c(=N\C(=O)c2cc(C(F)(F)F)cc(C(F)(F)F)c2)n1CC1CC1 |  |  |  |  | inhibition (Cannabinoid receptor 2 [18]): 10%
20 | Cc1s/c(=N\C(=O)c2cccc(C(F)(F)F)c2)n(CC2CC2)c1C | 25 |  |  |  | 
21 | Cc1cccc(C(=O)/N=c2\sc(C(C)(C)C)c(C)n2CC2CC2)c1 | 22 |  |  |  | 
22 | Cc1c(C(C)(C)C)s/c(=N\C(=O)c2cccc(Br)c2)n1CC1CC1 | 1.2 | 0.3 | 53 | 96 | 
23 | CCCn1c(C)c(C(C)(C)C)s/c1=N\C(=O)c1cccc(C(F)(F)F)c1 | 46 |  |  |  | 
24 | Cc1c(C(C)(C)C)s/c(=N\C(=O)c2ccccc2)n1CC1CC1 | 260 | 86 |  | 100 | 
25 | Cc1c(C(C)(C)C)s/c(=N\C(=O)c2cccc(Cl)c2)n1CC1CC1 | 20 |  |  |  | 
26 | Cc1c(C(C)(C)C)s/c(=N\C(=O)c2ccc(Cl)c(C(F)(F)F)c2)n1CC1CC1 | 230 |  |  |  | 
27 | Cc1c(C(C)(C)C)s/c(=N\C(=O)c2cccc(F)c2)n1CC1CC1 |  |  |  |  | inhibition (Cannabinoid receptor 2 [18]): 44%
28 | Cc1c(C(C)(C)C)s/c(=N\C(=O)c2ccccc2C(F)(F)F)n1CC1CC1 |  |  | 140 |  | 
